In patent publication US8129552B2, “Phospholipids with unsaturated alkyl and acyl chains” (Max-Planck-Gesellschaft zur Forderung der Wissenschaften …, priority 1998, dated 2012):
Like-named read-outs stand apart in the source and are kept apart here.

Tests used:
[1] = rats; cited from earlier work
[2] = oral administration; cited from earlier work
tumor [3] = test: Antitumor activity of alkylphosphocholines: T/C and median tumor volume after therapy (Example 5); assay type: in vivo; conditions: for T/C (quotient of the median tumor volume in the treated and the control group × 100): evaluation after therapy for 5 weeks
From the text: Comparison of the Known Antitumor Active Ingredient Erucylphosphocholine with Active Ingredients of the Invention
Comparison of a compound not of the invention (erucylphosphocholine) with two active ingredients of the invention is shown in Table 1.

tumor [4] = conditions: evaluation after therapy for 5 weeks, cited from earlier work
complex organisms = conditions: in vivo; cited from earlier work
cell culture = conditions: cited from earlier work

CCCCCCCCCCCCCCCCOP(=O)([O-])OCC[N+](C)(C)C [HePC, hexadecylphosphocholine]
adverse effect of direct intravenous administration of a solution [1]: thrombophlebitis | toxicity in clinical studies [2]: toxicities in the gastrointestinal tract

CCCCCCC/C=C\CCCC/C=C\CCCCCOP(=O)([O-])OCC[N+](C)(C)C [(Z,Z)-6,12-Eicosadienyl-1-PC, (Z,Z)-6,12-eicosadienyl-1-phosphocholine]
Median tumor volume, 2 weeks later (tumor [3]; dose 42 μmol/kg): 13.9 cm^3 | Median tumor volume, End of therapy (tumor [3]; dose 42 μmol/kg): 10 cm^3 | Median tumor volume, 2 weeks later (tumor [3]; dose 84 μmol/kg): 13.9 cm^3 | Median tumor volume, End of therapy (tumor [3]; dose 84 μmol/kg): 3.2 cm^3 | Median tumor volume, 2 weeks later (tumor [3]; dose 170 μmol/kg): 1.9 cm^3 | Median tumor volume, End of therapy (tumor [3]; dose 170 μmol/kg): 0.4 cm^3 | Median tumor volume, 2 weeks later (tumor [3]; dose 256 μmol/kg): 0 cm^3 | Median tumor volume, End of therapy (tumor [3]; dose 256 μmol/kg): 0 cm^3

CCCCCCCC/C=C\CCCCCCCCCCCCOP(=O)([O-])OCC[N+](C)(C)C [Erucylphosphocholine, erucylphosphocholine]
T/C (quotient of the median tumor volume in the treated and the control group × 100) (tumor [4]; weekly dose 90 μmol/kg): 31% | T/C (quotient of the median tumor volume in the treated and the control group × 100) (tumor [4]; weekly dose 180 μmol/kg): 6% | T/C (quotient of the median tumor volume in the treated and the control group × 100) (tumor [4]; weekly dose 360 μmol/kg): <0.1%

CCCCCCCC/C=C\CCCCCCCCCCCOP(=O)([O-])OCC[N+](C)(C)C [(Z)-12-Heneicosenyl-1-phosphocholine, (Z)-12-heneicosenyl-1-phosphocholine]
Median tumor volume, 2 weeks later (tumor [3]; dose 42 μmol/kg): 4.5 cm^3 | Median tumor volume, End of therapy (tumor [3]; dose 42 μmol/kg): 3.4 cm^3 | Median tumor volume, 2 weeks later (tumor [3]; dose 84 μmol/kg): 1.2 cm^3 | Median tumor volume, End of therapy (tumor [3]; dose 84 μmol/kg): 0.3 cm^3 | Median tumor volume, 2 weeks later (tumor [3]; dose 170 μmol/kg): 0.1 cm^3 | Median tumor volume, End of therapy (tumor [3]; dose 170 μmol/kg): 0.1 cm^3 | Median tumor volume, 2 weeks later (tumor [3]; dose 256 μmol/kg): 0.8 cm^3 | Median tumor volume, End of therapy (tumor [3]; dose 256 μmol/kg): 0.2 cm^3

CCCCC/C=C\CCCCCCCCCCCCCCCOP(=O)([O-])OCC[N+](C)(C)C [(Z)-16-Docosenyl-1-phosphocholine, (Z)-16-docosenyl-1-phosphocholine]
Median tumor volume, End of therapy (tumor [3]; dose 42 μmol/kg): 26.9 cm^3 | Median tumor volume, 2 weeks later (tumor [3]; dose 84 μmol/kg): 7.6 cm^3 | Median tumor volume, End of therapy (tumor [3]; dose 84 μmol/kg): 2.5 cm^3 | Median tumor volume, 2 weeks later (tumor [3]; dose 170 μmol/kg): 0.4 cm^3 | Median tumor volume, End of therapy (tumor [3]; dose 170 μmol/kg): 0.2 cm^3

C=CCCCCCCCC/C=C\CCCCCCCCCCOP(=O)([O-])OCC[N+](C)(C)C [(Z)-11,21-Docosadienyl-1-PC, (Z)-11,21-docosadienyl-1-phosphocholine]
Median tumor volume, 2 weeks later (tumor [3]; dose 42 μmol/kg): 2.5 cm^3 | Median tumor volume, End of therapy (tumor [3]; dose 42 μmol/kg): 1.5 cm^3 | Median tumor volume, 2 weeks later (tumor [3]; dose 84 μmol/kg): 2.9 cm^3 | Median tumor volume, End of therapy (tumor [3]; dose 84 μmol/kg): 0.9 cm^3 | Median tumor volume, 2 weeks later (tumor [3]; dose 170 μmol/kg): 0.5 cm^3 | Median tumor volume, End of therapy (tumor [3]; dose 170 μmol/kg): 0.4 cm^3 | T/C (quotient of the median tumor volume in the treated and the control group × 100) (tumor [3]; weekly dose 42 μmol/kg): 8% | T/C (quotient of the median tumor volume in the treated and the control group × 100) (tumor [3]; weekly dose 170 μmol/kg): 2%

CCCCC/C=C\CCCC/C=C\CCCCCCCCCOP(=O)([O-])OCC[N+](C)(C)C [(Z,Z)-10,16-Docosadienyl-1-PC, (Z,Z)-10,16-docosadienyl-1-phosphocholine]
Median tumor volume, 2 weeks later (tumor [3]; dose 42 μmol/kg): 11.4 cm^3 | Median tumor volume, End of therapy (tumor [3]; dose 42 μmol/kg): 7.5 cm^3 | Median tumor volume, 2 weeks later (tumor [3]; dose 84 μmol/kg): 0.6 cm^3 | Median tumor volume, End of therapy (tumor [3]; dose 84 μmol/kg): 0.6 cm^3 | Median tumor volume, 2 weeks later (tumor [3]; dose 170 μmol/kg): 0.7 cm^3 | Median tumor volume, End of therapy (tumor [3]; dose 170 μmol/kg): 0.5 cm^3

CCCCCCCCCCCCCCCCCCOCC(COP(=O)([O-])OCC[N+](C)(C)C)OC (racemic) [ET18-OCH3, 1-O-octadecyl-2-O-methyl-rac-glycero-3-phosphocholine]
activity in complex organisms (complex organisms): virtually inactive | antineoplastic activity in cell-culture experiments (cell culture): excellent antineoplastic activity

CCCCCCCCCCC/C=C\CCCCCCCCCOP(=O)([O-])OCC[N+](C)(C)C [(Z)-10-Docosenyl-1-PC, (Z)-10-docosenyl-1-phosphocholine]
Median tumor volume, 2 weeks later (tumor [3]; dose 42 μmol/kg): 4.5 cm^3 | Median tumor volume, End of therapy (tumor [3]; dose 42 μmol/kg): 4.0 cm^3 | Median tumor volume, 2 weeks later (tumor [3]; dose 84 μmol/kg): 3.4 cm^3 | Median tumor volume, End of therapy (tumor [3]; dose 84 μmol/kg): 1.2 cm^3 | Median tumor volume, 2 weeks later (tumor [3]; dose 170 μmol/kg): 0.2 cm^3 | Median tumor volume, End of therapy (tumor [3]; dose 170 μmol/kg): 0.2 cm^3 | Median tumor volume, 2 weeks later (tumor [3]; dose 256 μmol/kg): 0.2 cm^3 | Median tumor volume, End of therapy (tumor [3]; dose 256 μmol/kg): 0.1 cm^3 | T/C (quotient of the median tumor volume in the treated and the control group × 100) (tumor [3]; weekly dose 42 μmol/kg): 9% | T/C (quotient of the median tumor volume in the treated and the control group × 100) (tumor [3]; weekly dose 170 μmol/kg): 0.5% | T/C (quotient of the median tumor volume in the treated and the control group × 100) (tumor [3]; weekly dose 256 μmol/kg): 0.2%
